Measurements as given in US8314077B2 (priority 1996, dated 2012).
Like-named read-outs stand apart in the source and are kept apart here.

What was measured:
57 cancer cell lines = format: cell-based; settings: for potency relative to Taxol: many cell lines tested; for pattern of activity versus Taxol (NCI statistical analysis): statistical analysis designed by the NCI
Protocol: (§1) Conjugates 1 and 2 were sent to the United States National Cancer Institute (NCI) for screening in the NCI's anticancer screening program. The conjugates were provided in ethanol (approximately 40 mg analog/2 ml ethanol). The conjugates were sealed in vials under argon to avoid exposure of the conjugates to oxygen because the conjugates were believed to be sensitive to oxygen. Instructions were provided to store at 4° C. and to open the vials only when ready for immediate experimental use. Instructions also were provided to use the ethanol solutions containing the conjugates directly or to dissolve the analogs further in DMSO (dimethylsulfoxide) at appropriate concentrations, with vortexing if necessary for adequate dispersal.
(§2) The activities of conjugates 1 and 2 were tested against 57 cancer cell lines. […] To understand the data, reference is made to the guides provided by the NCI, excerpted as follows:
(§3) The Calculated Measurement of Effect: Percentage Growth (PG)
(§4) The measured effect of the compound on a cell line is currently calculated according to one or the other of the following two expressions:
(§5) If (Mean ODtext−Mean ODtzero)≧0, then PG=100×(Mean ODtest−Mean ODtzero)/(Mean ODctrl−Mean Odtzero)
(§6) If (Mean ODtest−Mean ODtzero)<0, then PG=100×(Mean ODtest−Mean Odtzero)/Mean Odtzero
(§7) Where: • Mean ODtzero=The average of optical density measurements of SRB-derived color just before exposure of cells to the test compound. • Mean ODtest=The average of optical density measurements of SRB-derived color after 48 hours exposure of cells to the test compound. • Mean ODctrl=The average of optical density measurements of SRB-derived color after 48 hours with no exposure of cells to the test compound.
(§8) Experimental data was collected against each cell line. . . . . Each concentration is expressed as the log10 (molar or μg/ml) . . . . The response parameters GI50, TGI, and LC50 are interpolated values representing the concentrations at which the PG is +50, 0, and −50, respectively. Sometimes these response parameters cannot be obtained by interpolation. If, for instance, all of the PGs in a given row exceed +50, then none of the three parameters can be obtained by interpolation. In such a case, the value given for each response parameter is the highest concentration tested. This practice is extended similarly to the other possible situations where a response parameter cannot be obtained by interpolation.
(§9) The dose-response curve page of the data package is created by plotting the PGs against the log10 of the corresponding concentration for every cell line. The cell line curves are grouped by subpanel. Horizontal lines are provided at the PG values of +50, 0, and −50. The concentrations corresponding to points where the curves cross these lines are the GI50, TGI and LC50, respectively.

CNS SF-539 = test: cells; format: cell-based; settings: for TGI: concentration at which PG is 0, CNS SF-539
Protocol: as §1, with “The conjugates were sealed in vials under argon to avoid exposure of the conjugates to oxygen because the conjugates were believed to be sensitive to oxygen.” left out
as §2, §3, §4, §5, §6, §7, §8, §9

CNSSF 268 = test: cells; format: cell-based
Protocol: as §1, with “The conjugates were sealed in vials under argon to avoid exposure of the conjugates to oxygen because the conjugates were believed to be sensitive to oxygen.” left out
as §2, §3, §4, §5, §6, §7, §8, §9

[1] = tested on: MDA-N and MDA-MB-435 breast cancer cell lines; format: cell-based; settings: all concentrations tested
Protocol: as §1, with “The conjugates were sealed in vials under argon to avoid exposure of the conjugates to oxygen because the conjugates were believed to be sensitive to oxygen.” left out
as §2, §3, §4, §5, §6, §7, §8, §9

[2] = tested on: non-small cell lung cancer lines H522 and H460; format: cell-based
Protocol: as §1, with “The conjugates were sealed in vials under argon to avoid exposure of the conjugates to oxygen because the conjugates were believed to be sensitive to oxygen.” left out
as §2, §3, §4, §5, §6, §7, §8, §9

CNSU251 = format: cell-based
Protocol: as §1, with “The conjugates were sealed in vials under argon to avoid exposure of the conjugates to oxygen because the conjugates were believed to be sensitive to oxygen.” left out
as §2, §3, §4, §5, §6, §7, §8, §9

[3] = tested on: leukemia cancer cell lines; format: cell-based; settings: six lines for the conjugates, four lines for Taxol; FIGS. 1, 10 and 19
Protocol: as §1, with “The conjugates were sealed in vials under argon to avoid exposure of the conjugates to oxygen because the conjugates were believed to be sensitive to oxygen.” left out
as §2, §3, §4, §5, §6, §7, §8, §9

[4] = in vivo; cited from earlier work

CC/C=C\C/C=C\C/C=C\C/C=C\C/C=C\C/C=C\CCC(=O)O[C@H]1C[C@H]2OC[C@@]2(OC(C)=O)[C@H]2[C@H](OC(=O)c3ccccc3)[C@]3(O)CC(OC(=O)C(O)[C@@H](NC(=O)c4ccccc4)c4ccccc4)C(C)=C([C@@H](OC(C)=O)C(=O)[C@]12C)C3(C)C (stereo partly shown) [conjugate 2]
potency relative to Taxol (57 cancer cell lines): one thousand to ten thousand times less potent than Taxol | pattern of activity versus Taxol (NCI statistical analysis) (57 cancer cell lines): statistically different | GI50 (CNS SF-539; CNSSF-539, 48 h): 2.75 µM | TGI (CNS SF-539; 48 hours exposure): −5.53 log10 (molar or μg/ml) | GI50 (CNSSF 268; 48 h): 5.25 µM | relative activity toward MDA-N versus MDA-MB-435 [1]: more effective against MDA-N than MDA-MB-435 | relative effectiveness against H460 versus H522 at TGI [2]: slightly more effective against H460 than H522 | effectiveness at TGI against CNSU251 relative to other CNS cell lines (CNSU251): very effective | effectiveness against leukemia cell lines [3]: not very effective

CC(=O)O[C@H]1C(=O)[C@@]2(C)[C@H]([C@H](OC(=O)c3ccccc3)[C@]3(O)C[C@H](OC(=O)[C@H](O)[C@@H](NC(=O)c4ccccc4)c4ccccc4)C(C)=C1C3(C)C)[C@]1(OC(C)=O)CO[C@@H]1C[C@@H]2O [Taxol, paclitaxel, reference compound]
average GI50 across all cell lines tested (57 cancer cell lines; average over cell lines, −10 used where Taxol was active at −10.0): at least −9.19 log10 (molar or μg/ml) | TGI (CNS SF-539; 48 hours exposure): −6.95 log10 (molar or μg/ml) | GI50 (CNS SF-539; concentration at which PG is +50, 48 hours exposure, CNS SF 539): −7.52 log10 (molar or μg/ml) | GI50 (CNSSF 268; concentration at which PG is +50, 48 hours exposure, CNSSF 268): less than −10.0 log10 (molar or μg/ml) | entry into the brain [4]: does not get into the brain | difference in effectiveness, H522 versus H460, at TGI [2]: about 3 logs | effectiveness against leukemia cell lines [3]: somewhat effective

CC/C=C\C/C=C\C/C=C\C/C=C\C/C=C\C/C=C\CCC(=O)OC(C(=O)OC1C[C@@]2(O)[C@@H](OC(=O)c3ccccc3)[C@@H]3[C@]4(OC(C)=O)CO[C@@H]4C[C@H](O)[C@@]3(C)C(=O)[C@H](OC(C)=O)C(=C1C)C2(C)C)[C@@H](NC(=O)c1ccccc1)c1ccccc1 (stereo partly shown) [conjugate 1]
potency relative to Taxol (57 cancer cell lines): one thousand to ten thousand times less potent than Taxol | pattern of activity versus Taxol (NCI statistical analysis) (57 cancer cell lines): statistically different | GI50 (CNS SF-539; CNSSF-539, concentration at which PG is +50, 48 hours exposure, CNS SF 539, read-out: GI50 (converted)): 0.603 µM | TGI (CNS SF-539; 48 hours exposure): −5.13 log10 (molar or μg/ml) | GI50 (CNSSF 268; concentration at which PG is +50, 48 hours exposure, CNSSF 268, read-out: GI50 (converted)): 4.37 µM | relative activity toward MDA-N versus MDA-MB-435 [1]: more effective against MDA-N than MDA-MB-435 | relative effectiveness against H460 versus H522 at TGI [2]: slightly more effective against H460 than H522 | effectiveness at TGI against CNSU251 relative to other CNS cell lines (CNSU251): most effective | effectiveness against leukemia cell lines [3]: not very effective
